# Source: ChEMBL document CHEMBL1201862, “PubChem BioAssay data set” (2004)
# Activity calls are given as the source filed them. No stated cut-off is given here; in the data, actives have a measured IC50 and inactives only a lower limit.
# Target: Envelope glycoprotein gp160 (Human immunodeficiency virus 1, UniProt Q6QLK5)
# Assay: inhibitors of HIV fusion peptide binding, primary screen, biochemical, uHTS, fluorescence dequenching (AID 1986)
# Sequence of Envelope glycoprotein gp160 (Q6QLK5 whole entry, the tested form may be a part): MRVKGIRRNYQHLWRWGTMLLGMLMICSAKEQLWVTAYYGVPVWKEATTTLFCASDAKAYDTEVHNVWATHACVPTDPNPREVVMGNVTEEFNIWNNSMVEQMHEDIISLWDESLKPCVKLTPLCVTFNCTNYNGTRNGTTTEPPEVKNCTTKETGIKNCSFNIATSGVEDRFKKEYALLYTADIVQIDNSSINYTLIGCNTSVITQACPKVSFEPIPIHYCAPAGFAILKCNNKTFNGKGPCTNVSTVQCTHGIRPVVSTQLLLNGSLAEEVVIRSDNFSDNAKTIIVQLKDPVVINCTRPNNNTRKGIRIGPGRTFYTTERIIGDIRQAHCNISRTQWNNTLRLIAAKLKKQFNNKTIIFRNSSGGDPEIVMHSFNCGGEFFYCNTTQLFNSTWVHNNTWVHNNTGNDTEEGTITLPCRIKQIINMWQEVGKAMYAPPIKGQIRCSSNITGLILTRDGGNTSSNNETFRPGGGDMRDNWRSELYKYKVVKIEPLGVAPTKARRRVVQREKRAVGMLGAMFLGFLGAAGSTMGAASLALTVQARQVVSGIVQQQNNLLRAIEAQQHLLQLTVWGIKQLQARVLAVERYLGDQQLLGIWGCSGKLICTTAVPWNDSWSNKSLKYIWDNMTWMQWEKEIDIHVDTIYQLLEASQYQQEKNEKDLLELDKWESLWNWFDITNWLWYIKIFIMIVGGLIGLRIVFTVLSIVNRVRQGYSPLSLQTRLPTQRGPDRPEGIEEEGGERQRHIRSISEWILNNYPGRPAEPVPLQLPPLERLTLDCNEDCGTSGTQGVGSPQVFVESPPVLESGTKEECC
compound,measurement,value
COc1ccc(C(=O)/C=C/c2ccc(-c3ccccc3)cc2)cc1CSCC(=O)O,IC50,21.5 µM (active)
